Measured values: article PMC8147254, “Efflux at the Blood-Brain Barrier Reduces the Cerebral Exposure to Ochratoxin A, Ochratoxin α, Citrinin and Dihydrocitrinone” (Toxins, 2021)

Experiments:
[1] = tested on: PBCEC; settings: 10 µM
[2] = tested on: PBCEC; assay type: cell-based, porcine; settings: levels higher than 100 µM; data not shown
Protocol: In order to study the barrier integrity PBCEC were incubated with 1 µM OTA, OTα, CIT and DHCIT in the apical compartment (blood side) of Transwell® filter inserts for 48 h. The TEER values as well as the electrical capacitance (cCL) were monitored by cellular impedance spectroscopy (Figure 4A,B). As a negative control the permeability of […] was measured after 48 h. Sucrose is not transported by any cellular transport protein and represents a marker for an intact BBB.
For barrier integrity, TEER values were monitored using a cellZscope® cellular impedance spectrometer (nanoAnalytics, Münster, Germany). […]. The detailed protocols can be found in the Supplementary Materials. […]
6.1. Cellular impedance spectroscopy
To monitor the barrier integrity during all transfer studies, the transendothelial electrical resistance (TEER) was measured with a cellZscope® cellular impedance spectrometer (nanoAnalytics, Münster, Germany) using a module suitable for 24 Transwell® filter inserts. After the mycotoxins were added to the cell culture medium, TEER was analyzed until the end of the experiment (48 h). The waiting time after each run was set to 10 min, resulting in 60 scans per 48 h.
The results were normalized to the TEER values of the first impedance spectrum of each well. Data processing was performed using the cellZscope 1.3.4 software (nanoAnalytics, Münster, Germany).

| SMILES | cellular viability (dehydrogenase activity) compared to the negative control [1] [%] | effect on PBCEC barrier integrity [2] |
| --- | --- | --- |
| CC(=O)OC[C@]12C[C@H](OC(=O)CC(C)C)C(C)=C[C@H]1O[C@@H]1[C@H](O)[C@@H](OC(C)=O)[C@@]2(C)[C@]12CO2 [T-2 toxin, reference compound] | 2 ± 1 |  |
| CCCN(CCC)S(=O)(=O)c1ccc(C(=O)O)cc1 [probenecid, 4-(N,N-dipropylaminosulfonyl)benzoic acid, reference compound] |  | impaired the PBCEC barrier integrity |
